# According to ChEMBL document CHEMBL4732096, “Design, synthesis and evaluation of calix[4]arene-based carbonyl amide derivatives with antitumor activities” (Eur J Med Chem, 2021):
# Active and inactive are the calls of the source. The calls are words filed in the database; no cut-off is given here.
# Tests used:
# MDA-MB-231 [1] = assay: Induction of apoptosis in human MDA-MB-231 cells assessed as necrotic cells at 20 uM measured after 48 hrs by Annexin V-FITC/propidium iodide staining based flow cytometry (reference value: 0.36 %); format: functional
# MDA-MB-231 [2] = assay: Antiproliferative activity against human MDA-MB-231 cells assessed as inhibition of cell growth at 10 uM measured after 72 hrs by MTT assay relative to control; format: functional
# MDA-MB-231 [3] = assay: Antimigratory activity in human MDA-MB-231 cells assessed as cell migration at 4 uM measured after 48 hrs by wound healing assay (reference value: 67.4 %); format: functional
# MDA-MB-231 [4] = assay: Induction of apoptosis in human MDA-MB-231 cells assessed as increase in fluorescence intensity at 0.2 to 20 uM measured after 48 hrs by Hoechst 33342 staining based fluorescence microscopic analysis; format: functional, cell-based; conditions: dose 0.2-20 µM
# MDA-MB-231 [5] = assay: Induction of apoptosis in human MDA-MB-231 cells assessed as increase in Bax expression at 0.4 to 10 uM measured after 48 hrs by Western blot analysis; format: functional, cell-based; conditions: dose 0.4-10 µM
# MDA-MB-231 [6] = assay: Induction of apoptosis in human MDA-MB-231 cells assessed as early apoptotic cells at 2 uM measured after 48 hrs by Annexin V-FITC/propidium iodide staining based flow cytometry (reference value: 1.03 %); format: functional
# MDA-MB-231 [7] = assay: Antiproliferative activity against human MDA-MB-231 cells assessed as inhibition of cell growth measured after 72 hrs by MTT assay; format: functional, cell-based; conditions: MDA-MB-231, 72 h
# MDA-MB-231 [8] = assay: Induction of apoptosis in human MDA-MB-231 cells assessed as increase in cleaved PARP level at 0.4 to 10 uM measured after 48 hrs by Western blot analysis; format: functional, cell-based; conditions: dose 0.4-10 µM
# MDA-MB-231 [9] = assay: Antimigratory activity in human MDA-MB-231 cells assessed as reduction in cell migration measured after 48 hrs by wound healing assay; format: functional, cell-based
# A549 [10] = assay: Antiproliferative activity against human A549 cells assessed as inhibition of cell growth at 10 uM measured after 72 hrs by MTT assay relative to control; format: functional
# MDA-MB-231 [11] = assay: Induction of apoptosis in human MDA-MB-231 cells assessed as early apoptotic cells at 0.2 uM measured after 48 hrs by Annexin V-FITC/propidium iodide staining based flow cytometry (reference value: 1.03 %); format: functional
# A549 [12] = assay: Antiproliferative activity against human A549 cells assessed as inhibition of cell growth measured after 72 hrs by MTT assay; format: functional, cell-based; conditions: A549, 72 h
# MDA-MB-231 [13] = assay: Induction of apoptosis in human MDA-MB-231 cells assessed as decrease in Bcl-2 expression at 0.4 to 10 uM measured after 48 hrs by Western blot analysis; format: functional, cell-based; conditions: dose 0.4-10 µM
# MDA-MB-231 [14] = assay: Induction of apoptosis in human MDA-MB-231 cells assessed as necrotic cells at 2 uM measured after 48 hrs by Annexin V-FITC/propidium iodide staining based flow cytometry (reference value: 0.36 %); format: functional
# [15] = Cytotoxicity against HUVEC cells assessed as inhibition of cell growth at 10 uM measured after 72 hrs by MTT assay; format: cell-based; conditions: human
# A549 [16] = assay: Potency index, ratio of IC50 of CLX-4 to IC50 of compound for antiproliferative activity against human A549 cells assessed as inhibition of cell growth measured after 72 hrs by MTT assay; format: functional
# MDA-MB-231 [17] = assay: Induction of cell cycle arrest in human MDA-MB-231 cells assessed as decrease in CyclinD1 expression at 0.4 to 10 uM measured after 48 hrs by Western blot analysis; format: functional, cell-based; conditions: dose 0.4-10 µM
# MDA-MB-231 [18] = assay: Induction of apoptosis in human MDA-MB-231 cells assessed as early apoptotic cells at 20 uM measured after 48 hrs by Annexin V-FITC/propidium iodide staining based flow cytometry (reference value: 1.03 %); format: functional
# MDA-MB-231 [19] = assay: Antimigratory activity in human MDA-MB-231 cells assessed as cell migration at 8 uM measured after 48 hrs by wound healing assay (reference value: 67.4 %); format: functional
# MDA-MB-231 [20] = assay: Induction of morphological changes in human MDA-MB-231 cells assessed as cell shrinkage at 10 to 100 uM by optical inverted microscopic analysis; format: functional, cell-based; conditions: dose 10-100 µM
# MDA-MB-231 [21] = assay: Induction of apoptosis in human MDA-MB-231 cells assessed as viable cells at 2 uM measured after 48 hrs by Annexin V-FITC/propidium iodide staining based flow cytometry (reference value: 94.1 %); format: functional; conditions: read-out: Activity
# MDA-MB-231 [22] = assay: Induction of apoptosis in human MDA-MB-231 cells assessed as nuclear condensation at 0.2 to 20 uM measured after 48 hrs by Hoechst 33342 staining based fluorescence microscopic analysis; format: functional, cell-based; conditions: dose 0.2-20 µM
# MDA-MB-231 [23] = assay: Induction of apoptosis in human MDA-MB-231 cells assessed as necrotic cells at 0.2 uM measured after 48 hrs by Annexin V-FITC/propidium iodide staining based flow cytometry (reference value: 0.36 %); format: functional
# MDA-MB-231 [24] = assay: Induction of apoptosis in human MDA-MB-231 cells assessed as increase in caspase-3 activation at 0.4 to 10 uM measured after 48 hrs by Western blot analysis; format: functional, cell-based; conditions: dose 0.4-10 µM
# MDA-MB-231 [25] = assay: Induction of apoptosis in human MDA-MB-231 cells assessed as late apoptotic cells at 2 uM measured after 48 hrs by Annexin V-FITC/propidium iodide staining based flow cytometry (reference value: 4.5 %); format: functional
# MDA-MB-231 [26] = assay: Induction of apoptosis in human MDA-MB-231 cells assessed as viable cells at 20 uM measured after 48 hrs by Annexin V-FITC/propidium iodide staining based flow cytometry (reference value: 94.1 %); format: functional; conditions: read-out: Activity
# MDA-MB-231 [27] = assay: Antimigratory activity in human MDA-MB-231 cells assessed as cell migration at 2 uM measured after 48 hrs by wound healing assay (reference value: 67.4 %); format: functional
# MDA-MB-231 [28] = assay: Induction of apoptosis in human MDA-MB-231 cells assessed as increase in ratio of Bax/Bcl-2 at 0.4 to 10 uM measured after 48 hrs by Western blot analysis; format: functional, cell-based; conditions: dose 0.4-10 µM
# MDA-MB-231 [29] = assay: Induction of cell cycle arrest in human MDA-MB-231 cells assessed as increase in accumulation in G0/G1 phase at 0.2 to 20 uM measured after 48 hrs by propidium iodide staining based flow cytometry; format: functional; conditions: dose 0.2-20 µM
# MDA-MB-231 [30] = assay: Induction of cell cycle arrest in human MDA-MB-231 cells assessed as decrease in CDK4 expression at 0.4 to 10 uM measured after 48 hrs by Western blot analysis; format: functional, cell-based; conditions: dose 0.4-10 µM
# MDA-MB-231 [31] = assay: Induction of apoptosis in human MDA-MB-231 cells assessed as viable cells at 0.2 uM measured after 48 hrs by Annexin V-FITC/propidium iodide staining based flow cytometry (reference value: 94.1 %); format: functional; conditions: read-out: Activity
# MCF7 = assay: Antiproliferative activity against human MCF7 cells assessed as inhibition of cell growth at 10 uM measured after 72 hrs by MTT assay relative to control; format: functional
# MDA-MB-231 [32] = assay: Induction of apoptosis in human MDA-MB-231 cells assessed as increase in apoptotic bodies at 0.2 to 20 uM measured after 48 hrs by Hoechst 33342 staining based fluorescence microscopic analysis; format: functional, cell-based; conditions: dose 0.2-20 µM
# MDA-MB-231 [33] = assay: Induction of apoptosis in human MDA-MB-231 cells assessed as late apoptotic cells at 0.2 uM measured after 48 hrs by Annexin V-FITC/propidium iodide staining based flow cytometry (reference value: 4.5 %); format: functional
# MDA-MB-231 [34] = assay: Induction of apoptosis in human MDA-MB-231 cells assessed as nuclear rupture at 0.2 to 20 uM measured after 48 hrs by Hoechst 33342 staining based fluorescence microscopic analysis; format: functional, cell-based; conditions: dose 0.2-20 µM
# MDA-MB-231 [35] = assay: Induction of apoptosis in human MDA-MB-231 cells assessed as late apoptotic cells at 20 uM measured after 48 hrs by Annexin V-FITC/propidium iodide staining based flow cytometry (reference value: 4.5 %); format: functional
# MDA-MB-231 [36] = assay: Potency index, ratio of IC50 of CLX-4 to IC50 of compound for antiproliferative activity against human MDA-MB-231 cells assessed as inhibition of cell growth measured after 72 hrs by MTT assay; format: functional
# MDA-MB-231 [37] = assay: Induction of morphological changes in human MDA-MB-231 cells assessed as rounded cell morphology at 10 to 100 uM by optical inverted microscopic analysis; format: functional, cell-based; conditions: dose 10-100 µM
# HepG2 = assay: Antiproliferative activity against human HepG2 cells assessed as inhibition of cell growth at 10 uM measured after 72 hrs by MTT assay relative to control; format: functional
# HT-29 = assay: Antiproliferative activity against human HT-29 cells assessed as inhibition of cell growth at 10 uM measured after 72 hrs by MTT assay relative to control; format: functional
# MDA-MB-231 [38] = assay: Induction of morphological changes in human MDA-MB-231 cells assessed as shedding of cell morphology at 10 to 100 uM by optical inverted microscopic analysis; format: functional, cell-based; conditions: dose 10-100 µM
structure (smiles),measurement,setting,value
CCC(Oc1c2cc(C(C)(C)C)cc1Cc1cc(C(C)(C)C)cc(c1O)Cc1cc(C(C)(C)C)cc(c1OC(CC)C(=O)N(CCO)CCO)Cc1cc(C(C)(C)C)cc(c1O)C2)C(=O)N(CCO)CCO (configuration not stated),Activity,MDA-MB-231 [1],1.37%
same,inhibition at 10 µM,MDA-MB-231 [2],88.2%
same,Activity,MDA-MB-231 [3],79%
same,Activity,MDA-MB-231 [4],Active
same,Activity,MDA-MB-231 [5],Active
same,Activity,MDA-MB-231 [6],22.1%
same,IC50,MDA-MB-231 [7],0.66 µM
same,Activity,MDA-MB-231 [8],Active
same,Activity,MDA-MB-231 [9],Dose-dependent effect
same,inhibition at 10 µM,A549 [10],90.7%
same,Activity,MDA-MB-231 [11],12.3%
same,IC50,A549 [12],1.2 µM
same,Activity,MDA-MB-231 [13],Active
same,Activity,MDA-MB-231 [14],0.34%
same,"inhibition at 72 h, 10 µM",[15],9.6%
same,Ratio IC50,A549 [16],3.2
same,Activity,MDA-MB-231 [17],Active
same,Activity,MDA-MB-231 [18],19.2%
same,Activity,MDA-MB-231 [19],84%
same,Activity,MDA-MB-231 [20],Active
same,viability at 2 µM,MDA-MB-231 [21],56.9%
same,Activity,MDA-MB-231 [22],Active
same,Activity,MDA-MB-231 [23],1.13%
same,Activity,MDA-MB-231 [24],Active
same,Activity,MDA-MB-231 [25],20.7%
same,viability at 20 µM,MDA-MB-231 [26],39%
same,Activity,MDA-MB-231 [27],76.9%
same,Activity,MDA-MB-231 [28],Active
same,Activity,MDA-MB-231 [29],Active
same,Activity,MDA-MB-231 [30],Active
same,viability at 0.2 µM,MDA-MB-231 [31],65.5%
same,inhibition at 10 µM,MCF7,90.4%
same,Activity,MDA-MB-231 [32],Active
same,Activity,MDA-MB-231 [33],21.2%
same,Activity,MDA-MB-231 [34],Active
same,Activity,MDA-MB-231 [35],40.4%
same,Ratio IC50,MDA-MB-231 [36],6.8
same,Activity,MDA-MB-231 [37],Active
same,inhibition at 10 µM,HepG2,89.6%
same,inhibition at 10 µM,HT-29,64.2%
same,Activity,MDA-MB-231 [38],Active
CC(C)(C)c1cc2c(O)c(c1)Cc1cc(C(C)(C)C)cc(c1OCCCCCC(=O)NCCCCCO)Cc1cc(C(C)(C)C)cc(c1O)Cc1cc(C(C)(C)C)cc(c1OCCCCCC(=O)NCCCCCO)C2,inhibition at 10 µM,MDA-MB-231 [2],31.2%
same,IC50,MDA-MB-231 [7],97.6 µM
same,inhibition at 10 µM,A549 [10],46.1%
same,IC50,A549 [12],> 100 µM
same,"inhibition at 72 h, 10 µM",[15],< 0%
same,inhibition at 10 µM,MCF7,< 0%
same,inhibition at 10 µM,HepG2,21.9%
same,inhibition at 10 µM,HT-29,21.2%
CC(C)(C)c1cc2c(O)c(c1)Cc1cc(C(C)(C)C)cc(c1OCCCC(=O)NCCCO)Cc1cc(C(C)(C)C)cc(c1O)Cc1cc(C(C)(C)C)cc(c1OCCCC(=O)NCCCO)C2,inhibition at 10 µM,MDA-MB-231 [2],29.5%
same,IC50,MDA-MB-231 [7],17.9 µM
same,inhibition at 10 µM,A549 [10],56.4%
same,IC50,A549 [12],10.3 µM
same,"inhibition at 72 h, 10 µM",[15],< 0%
same,inhibition at 10 µM,MCF7,< 0%
same,inhibition at 10 µM,HepG2,24.4%
same,inhibition at 10 µM,HT-29,35.3%
